From patent publication US11878973B2, “Bicyclic compounds and their uses” (NOVARTIS AG, priority 2021, dated 2024)
Read-outs that look alike come from different tables or passages of the source.

Columns and labels:
WRN helicase = WRN helicase (Homo sapiens (Human), UniProt Q14191); assay: In vitro enzymatic activity assay on WRN helicase (DNA dependent ATPase assay, ADP-Glo); assay type: biochemical; conditions: geometric means of at least 2 determinations; read-out: WRN ATPase Activity (IC50)
Method in brief: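 The WRN helicase core (aa N517-P1238), 10 nM, hydrolysed 300 µM ATP in the presence of 0.2 nM FLAP26 DNA (Tris pH 7.5, 2 mM MgCl2, 50 mM NaCl) for 30 min at room temperature. ADP formed was quantified by ADP-Glo luminescence.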

DLD1-WRN-KO cells = assay: Proliferation assay DLD1-WRN-KO (CellTiterGlo, 96 hours; off-target effects); conditions: read-out: Proliferation Assay DLD1-WRN-KO (GI50)
SW48 cells = assay: Proliferation assay SW48 (CellTiterGlo, 96 hours)
[1] = Homo sapiens, SW48, read-out: Proliferation Assay SW48 (GI50)
[2] = DLD1-WRN-KO cell line, geometric means of at least 2 determinations
[3] = read-out: Proliferation Assay SW48 (GI50), SW48 cell line, geometric means of at least 2 determinations

Sequence of WRN helicase (Q14191 517-1238): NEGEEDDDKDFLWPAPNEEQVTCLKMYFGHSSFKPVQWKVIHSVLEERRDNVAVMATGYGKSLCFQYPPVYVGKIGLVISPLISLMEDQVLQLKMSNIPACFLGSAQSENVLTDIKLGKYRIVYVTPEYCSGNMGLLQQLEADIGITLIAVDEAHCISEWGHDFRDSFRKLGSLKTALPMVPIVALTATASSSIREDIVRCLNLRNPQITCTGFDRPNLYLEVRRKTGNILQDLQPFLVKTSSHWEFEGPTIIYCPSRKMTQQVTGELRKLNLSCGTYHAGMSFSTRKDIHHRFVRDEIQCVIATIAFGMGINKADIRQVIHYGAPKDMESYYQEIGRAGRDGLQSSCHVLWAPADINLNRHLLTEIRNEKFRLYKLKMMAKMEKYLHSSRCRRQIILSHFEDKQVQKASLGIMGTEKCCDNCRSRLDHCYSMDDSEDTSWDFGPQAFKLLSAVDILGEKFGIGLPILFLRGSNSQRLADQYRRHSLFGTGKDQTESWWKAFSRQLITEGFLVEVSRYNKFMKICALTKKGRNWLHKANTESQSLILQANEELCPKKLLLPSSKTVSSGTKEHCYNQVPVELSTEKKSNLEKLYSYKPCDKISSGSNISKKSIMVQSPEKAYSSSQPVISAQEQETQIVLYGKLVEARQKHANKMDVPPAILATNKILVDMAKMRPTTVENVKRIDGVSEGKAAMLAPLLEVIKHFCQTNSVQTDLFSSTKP

IC50 (WRN helicase) | GI50 (DLD1-WRN-KO cells; Homo sapiens) | GI50 (SW48 cells; [1]) | GI50 (DLD1-WRN-KO cells; [2]) | GI50 (SW48 cells; [3]) | Structure (SMILES)
0.26 µM | > 10 µM | 0.22 µM |  |  | CCc1c(N2CCN(C(=O)c3ncccc3O)CC2)c(=O)n2nc(C3=CCOCC3)nc2n1CC(=O)Nc1cnc(C(F)(F)F)cc1Cl [Example 33, N-(4-chloro-6-(trifluoromethyl)pyridin-3-yl)-2-(2-(3,6-dihydro-2H-pyran-4-yl)-5-ethyl-6-(4-(3-hydroxypicolinoyl)piperazin-1-yl)-7-oxo-[1,2,4]triazolo[1,5-a]pyrimidin-4(7H)-yl)acetamide]
0.08 µM | > 10 µM | 0.19 µM |  |  | CCc1c(N2CCN(C(=O)c3ncccc3O)CC2)c(=O)n2nc(N3CCOCC3)nc2n1CC(=O)Nc1ccc(C(F)(F)F)cc1Cl [Example 2, N-(2-chloro-4-(trifluoromethyl)phenyl)-2-(5-ethyl-6-(4-(3-hydroxypicolinoyl)piperazin-1-yl)-2-morpholino-7-oxo-[1,2,4]triazolo[1,5-a]pyrimidin-4(7H)-yl)acetamide]
0.04 µM | > 10 µM | 0.06 µM |  |  | CCc1c(N2CCN(C(=O)c3ncccc3O)CC2)c(=O)n2nc(N3CCOCC3)nc2n1CC(=O)Nc1cc(Cl)c(C(F)(F)F)cc1C [Example 4, N-(5-chloro-2-methyl-4-(trifluoromethyl)phenyl)-2-(5-ethyl-6-(4-(3-hydroxypicolinoyl)piperazin-1-yl)-2-morpholino-7-oxo-[1,2,4]triazolo[1,5-a]pyrimidin-4(7H)-yl)acetamide]
0.05 µM | > 10 µM | 0.07 µM |  |  | CCc1c(N2CCN(C(=O)c3nc(C)ccc3O)CC2)c(=O)n2nc(C3=CCOCC3)nc2n1CC(=O)Nc1ccc(C(F)(F)F)cc1 [Example 74, 2-(2-(3,6-dihydro-2H-pyran-4-yl)-5-ethyl-6-(4-(3-hydroxy-6-methylpicolinoyl)piperazin-1-yl)-7-oxo-[1,2,4]triazolo[1,5-a]pyrimidin-4(7H)-yl)-N-(4-(trifluoromethyl)phenyl)acetamide]
0.19 µM | > 10 µM | 0.34 µM |  |  | CCc1c(N2CCN(C(=O)c3ncccc3O)CC2)c(=O)n2nc(N3CCC[C@@H](F)C3)nc2n1CC(=O)Nc1ccc(C(F)(F)F)nc1Cl [Example 16a, (R)—N-(2-chloro-6-(trifluoromethyl)pyridin-3-yl)-2-(5-ethyl-2-(3-fluoropiperidin-1-yl)-6-(4-(3-hydroxypicolinoyl)piperazin-1-yl)-7-oxo-[1,2,4]triazolo[1,5-a]pyrimidin-4(7H)-yl)acetamide]
0.28 µM | > 10 µM | 7.72 µM |  |  | CCc1c(N2CCN(C(=O)c3ncccc3O)CC2)c(=O)n2nc(N3CCN(CC(=O)O)CC3)nc2n1CC(=O)Nc1ccc(C(F)(F)F)cc1Cl [Example 82, 2-(4-(4-(2-((2-chloro-4-(trifluoromethyl)phenyl)amino)-2-oxoethyl)-5-ethyl-6-(4-(3-hydroxypicolinoyl)piperazin-1-yl)-7-oxo-4,7-dihydro-[1,2,4]triazolo[1,5-a]pyrimidin-2-yl)piperazin-1-yl)acetic acid]
0.16 µM | > 10 µM | 0.05 µM |  |  | CCc1c(N2CCN(C(=O)c3ncnc(C)c3O)[C@H](C)[C@H]2C)c(=O)n2nc(C3=CCOCC3)nc2n1CC(=O)Nc1ccc(C(F)(F)F)cc1Cl [Example 119, N-(2-chloro-4-(trifluoromethyl)phenyl)-2-(2-(3,6-dihydro-2H-pyran-4-yl)-5-ethyl-6-((2R,3R)-4-(5-hydroxy-6-methylpyrimidine-4-carbonyl)-2,3-dimethylpiperazin-1-yl)-7-oxo-[1,2,4]triazolo[1,5-a]pyrimidin-4(7H)-yl)acetamide]
0.1 µM |  |  | > 10 µM | 0.05 µM | CCc1c(N2CCN(C(=O)c3ncccc3O)CC2)c(=O)n2nc(C3=CC[C@H](OC)CC3)nc2n1CC(=O)Nc1ccc(C(F)(F)F)nc1Cl (single isomer, unassigned) [Example 25b, ((R)—N-(2-chloro-6-(trifluoromethyl)pyridin-3-yl)-2-(5-ethyl-6-(4-(3-hydroxypicolinoyl)piperazin-1-yl)-2-(4-methoxycyclohex-1-en-1-yl)-7-oxo-[1,2,4]triazolo[1,5-a]pyrimidin-4(7H)-yl)acetamide) or ((S)—N-(2-chloro-6-(trifluoromethyl)pyridin-3-yl)-2-(5-ethyl-6-(4-(3-hydroxypicolinoyl)piperazin-1-yl)-2-(4-methoxycyclohex-1-en-1-yl)-7-oxo-[1,2,4]triazolo[1,5-a]pyrimidin-4(7H)-yl)acetamide)]
0.16 µM |  |  | > 10 µM | 0.05 µM | CCc1c(N2CCN(C(=O)c3ncccc3O)CC2)c(=O)n2nc(C3=CC[C@H](OC)CC3)nc2n1CC(=O)Nc1ccc(C(F)(F)F)nc1Cl (single isomer, unassigned) [Example 25a, ((R)—N-(2-chloro-6-(trifluoromethyl)pyridin-3-yl)-2-(5-ethyl-6-(4-(3-hydroxypicolinoyl)piperazin-1-yl)-2-(4-methoxycyclohex-1-en-1-yl)-7-oxo-[1,2,4]triazolo[1,5-a]pyrimidin-4(7H)-yl)acetamide) or ((S)—N-(2-chloro-6-(trifluoromethyl)pyridin-3-yl)-2-(5-ethyl-6-(4-(3-hydroxypicolinoyl)piperazin-1-yl)-2-(4-methoxycyclohex-1-en-1-yl)-7-oxo-[1,2,4]triazolo[1,5-a]pyrimidin-4(7H)-yl)acetamide)]
0.07 µM |  |  | > 10 µM | 0.07 µM | CCc1c(N2CCN(C(=O)c3ncccc3O)CC2)c(=O)n2nc(C3=CC[C@H](OC)CC3)nc2n1CC(=O)Nc1ccc(C(F)(F)F)cc1C (single isomer, unassigned) [Example 80a, ((R)-2-(5-ethyl-6-(4-(3-hydroxypicolinoyl)piperazin-1-yl)-2-(4-methoxycyclohex-1-en-1-yl)-7-oxo-[1,2,4]triazolo[1,5-a]pyrimidin-4(7H)-yl)-N-(2-methyl-4-(trifluoromethyl)phenyl)acetamide) or ((S)-2-(5-ethyl-6-(4-(3-hydroxypicolinoyl)piperazin-1-yl)-2-(4-methoxycyclohex-1-en-1-yl)-7-oxo-[1,2,4]triazolo[1,5-a]pyrimidin-4(7H)-yl)-N-(2-methyl-4-(trifluoromethyl)phenyl)acetamide)]
0.07 µM | > 10 µM | 0.08 µM |  |  | CCc1c(N2CCN(C(=O)c3nccc(F)c3O)CC2)c(=O)n2nc(C3=CCOCC3)nc2n1CC(=O)Nc1ccc(C(F)(F)F)nc1Cl [Example 48, N-(2-chloro-6-(trifluoromethyl)pyridin-3-yl)-2-(2-(3,6-dihydro-2H-pyran-4-yl)-5-ethyl-6-(4-(4-fluoro-3-hydroxypicolinoyl)piperazin-1-yl)-7-oxo-[1,2,4]triazolo[1,5-a]pyrimidin-4(7H)-yl)acetamide]
0.04 µM | > 10 µM | 0.04 µM |  |  | CCc1c(N2CCN(C(=O)c3nc(C)cc(F)c3O)CC2)c(=O)n2nc(C3=CCOCC3)nc2n1CC(=O)Nc1ccc(C(F)(F)F)cc1Cl [Example 41, N-(2-chloro-4-(trifluoromethyl)phenyl)-2-(2-(3,6-dihydro-2H-pyran-4-yl)-5-ethyl-6-(4-(4-fluoro-3-hydroxy-6-methylpicolinoyl)piperazin-1-yl)-7-oxo-[1,2,4]triazolo[1,5-a]pyrimidin-4(7H)-yl)acetamide]
0.2 µM | > 10 µM | 1.13 µM |  |  | Cc1cc(Cl)ccc1NC(=O)Cn1c(C)c(N2CCN(C(=O)c3ncccc3O)CC2)c(=O)n2nc(C3=CCOCC3)nc12 [Example 105, N-(4-chloro-2-methylphenyl)-2-(2-(3,6-dihydro-2H-pyran-4-yl)-6-(4-(3-hydroxypicolinoyl)piperazin-1-yl)-5-methyl-7-oxo-[1,2,4]triazolo[1,5-a]pyrimidin-4(7H)-yl)acetamide]
0.13 µM | > 10 µM | 0.1 µM |  |  | CCc1c(N2CCN(C(=O)c3ncnc(C)c3O)CC2)c(=O)n2nc(C3=CCCCO3)nc2n1CC(=O)Nc1ccc(C(F)(F)F)nc1Cl [Example 28, N-(2-chloro-6-(trifluoromethyl)pyridin-3-yl)-2-(2-(3,4-dihydro-2H-pyran-6-yl)-5-ethyl-6-(4-(5-hydroxy-6-methylpyrimidine-4-carbonyl)piperazin-1-yl)-7-oxo-[1,2,4]triazolo[1,5-a]pyrimidin-4(7H)-yl)acetamide]
0.06 µM | 7.6 µM | 0.06 µM |  |  | CCc1c(N2CCN(C(=O)c3ncccc3O)CC2)c(=O)n2nc(C3=CCCCO3)nc2n1CC(=O)Nc1ccc(C(F)(F)F)cc1Cl [Example 32, N-(2-chloro-4-(trifluoromethyl)phenyl)-2-(2-(3,4-dihydro-2H-pyran-6-yl)-5-ethyl-6-(4-(3-hydroxypicolinoyl)piperazin-1-yl)-7-oxo-[1,2,4]triazolo[1,5-a]pyrimidin-4(7H)-yl)acetamide]
0.04 µM | > 10 µM | 0.26 µM |  |  | Cc1c(N2CCN(C(=O)c3ncccc3O)CC2)c(=O)n2nc(C3=CCOCC3)nc2n1CC(=O)Nc1ccc(C(F)(F)F)cc1 [Example 117, 2-(2-(3,6-dihydro-2H-pyran-4-yl)-6-(4-(3-hydroxypicolinoyl)piperazin-1-yl)-5-methyl-7-oxo-[1,2,4]triazolo[1,5-a]pyrimidin-4(7H)-yl)-N-(4-(trifluoromethyl)phenyl)acetamide]
